According to patent US20230286947A1, “COMPLEMENT FACTOR B INHIBITOR, AND PHARMACEUTICAL COMPOSITION, PREPARATION METHOD AND USE THEREOF” (SHANGHAI MEIYUE BIOTECH DEVELOPMENT CO. LTD, priority 2020, published 2023):
Each block holds one compound with its values, some of them ahead of it.

How the values were obtained:
[1] = system: Streptococcus-induced rheumatoid arthritis; assay: Streptococcus-induced rheumatoid arthritis (RA) model in rats; type: in vivo, Lewis rats; conditions: 15 mpk intragastric daily for 25 days, FIG. 3
Procedure: In the experiment, six- to nine-week-old female Lewis rats (Beijing Vital River) were used. Each group consisted of 6 rats, and they were given the cell wall peptidoglycan complexes of Streptococcus and several other species of bacteria by intraperitoneal administration (2-3 mg per rat) on D1, and were given the control compound (15 mpk) and Example 5 (15 mpk) by intragastric administration daily for 25 consecutive days. The arthritis in rats was scored in different phases. The scoring criteria are as follows: Scoring according to the degree of lesion (redness and swelling) was performed on a scale of 0-4 points, with a maximum score of 4 for each limb and a total maximum score of 16 for each animal's limbs. The scoring criteria are as follows: 0 points: no redness and swelling; 1 point: 1-2 red and swollen interphalangeal joints; 2 points: 3-4 red and swollen interphalangeal joints; 3 points: more than 4 red and swollen interphalangeal joints; 4 points: severe redness and swelling in toes or fingers to ankle joints or wrist joints.

[2] = PK experiment of single intragastric administration to rats; type: in vivo; conditions: male, Wistar Han, plasma, po, rat, 3 mg/kg, mean
Procedure: Six- to nine-week-old male Wistar han rats (from Shanghai Sippe-Bk Lab Animal Co., Ltd.) were fasted overnight. Each group consisted of 3 rats, and they were given the control compound, the compound of Example 5 and the compound of Example 6, respectively, by intragastric administration at 3 mg/kg at a volume of 10 mL/kg. 0.2 mL of blood was collected from the jugular vein at each time point, anticoagulated with EDTA-K2 and immediately centrifuged at 4000 rpm at 4° C. for 5 min. The supeatant was collected. The samples were cryopreserved in a freezer at −80° C. before analysis. Time points of blood collection: before administration, 5 min 15 min, 30 min, 1 h, 2 h, 4 h, 7 h and 24 h. […] After blood collection at all of the time points was completed, the animals were euthanized. The plasma samples were analyzed by LC-MS/MS. The data were used to calculate kinetic parameters (Tmax, Cmax, T½ and AUC) in the WinNonlin software.

[3] = biological target: T1, complement factor B in human serum (Homo sapiens, UniProt P00751); assay: Complement hemolytic activity assay (rabbit erythrocytes, normal human serum); type: cell-based; conditions: for IC50: rabbit erythrocytes, normal human serum, 37° C., read-out: Hemolysis IC50
T1 construct: from tissue; host or cells: normal human serum (NHS)
T1 sequence (P00751 26-764): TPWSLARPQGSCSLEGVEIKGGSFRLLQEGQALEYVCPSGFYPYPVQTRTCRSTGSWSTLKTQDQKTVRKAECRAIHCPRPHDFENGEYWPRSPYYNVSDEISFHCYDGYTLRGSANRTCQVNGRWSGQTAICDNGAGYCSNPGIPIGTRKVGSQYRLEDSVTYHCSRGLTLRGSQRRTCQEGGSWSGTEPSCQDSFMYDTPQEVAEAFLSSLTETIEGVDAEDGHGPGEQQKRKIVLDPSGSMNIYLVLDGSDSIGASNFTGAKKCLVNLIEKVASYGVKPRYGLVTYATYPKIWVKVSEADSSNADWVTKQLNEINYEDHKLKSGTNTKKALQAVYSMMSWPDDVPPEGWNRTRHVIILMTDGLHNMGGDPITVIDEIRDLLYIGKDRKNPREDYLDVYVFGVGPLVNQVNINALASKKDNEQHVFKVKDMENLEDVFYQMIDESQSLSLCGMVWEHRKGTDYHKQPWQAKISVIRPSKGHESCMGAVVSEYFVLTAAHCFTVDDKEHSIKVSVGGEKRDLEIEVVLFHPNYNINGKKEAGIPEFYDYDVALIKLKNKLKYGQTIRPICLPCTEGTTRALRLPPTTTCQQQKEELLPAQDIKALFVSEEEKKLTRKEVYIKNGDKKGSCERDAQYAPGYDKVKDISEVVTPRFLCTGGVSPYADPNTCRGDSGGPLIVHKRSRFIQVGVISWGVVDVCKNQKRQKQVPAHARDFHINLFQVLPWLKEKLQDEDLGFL
Procedure: The hemolysis experiment was carried out by referring to the description in Xuan Yuan et al., Haematologica. […] Prior to the experiment, the optimal concentration of normal human serum (NHS) required to achieve 100% lysis of rabbit erythrocytes (REs) was obtained by titration testing. […] REs (collected from healthy Japanese big-ear white rabbits) freshly suspended in a GVBO buffer comprising 10 mM Mg-EGTA were added to a final concentration of 1×10^8 cells/mL and incubated at 37° C. for 30 min. A GVBO buffer comprising 10 mM Mg-EGTA and comprising NHS and RE but no test compound was used as a positive control group (100% lysis). A GVBO buffer comprising 10 mM Mg-EGTA and comprising inactivated NHS (heated at 56° C. for 30 min or at 65° C. for 5 min) and RE but no test compound was used as a negative control group (0% lysis). The samples were centrifuged at 2000 g for 5 min, and the supernatant was collected. Absorbance at 415 nm (A415) was measured using a microplate reader (Molecular Devices, SpectraMax i3X). IC50 values were calculated from percent hemolysis as a function of test compound concentration by non-linear regression.

Complement factor B = Complement factor B (Homo sapiens, UniProt P00751); assay: Optical surface plasmon resonance (SPR) binding capacity assay; conditions: for Rmax (RU): test compound 500 μM, 25° C., 1:1 binding model; for binding capacity to the target protein compared with the control compound: at a concentration of 500 μM
Sequence of Complement factor B (P00751 26-764): as above
Procedure: An SPR experiment was carried out at 25° C. In the experiment, a PBS buffer supplemented with 0.05% (v/v) P20 and 5% DMSO was used as a running buffer, and the analytical instrument Biacore 8K of GE Healthcare was used. A CM7 ship (GE Healthcare) was activated with 400 mM EDC and 100 mM NHS at a flow rate of 30 μL/min for 420 s. […] Then the assay chip was treated with 1 M ethanolamine hydrochloride at a flow rate of 10 μL/min for 300 s for chip blocking. The concentration of the test compound was 500 μM, the binding time was 120 s, and the dissociation time was 300 s. Data analysis was performed using a 1:1 binding model (Biacore Insight Evalution Software, Version 2.0.15.12933).

[4] = Liver microsomal stability experiment (human); type: in vitro ADME; conditions: for MMS (human) Remaining (T = 90 min): human liver microsomes; for half-life at 1 µM: pooled liver microsomes, pH 7.4, NADPH, read-out: MMS (human) T1/2
Procedure: (§1) A 0.1 M solution of potassium dihydrogen phosphate in distilled water (comprising 1 mM ethylenediaminetetraacetic acid) was taken. Then the pH was adjusted to 7.4 with the 0.1 M solution of dipotassium phosphate in distilled water (comprising 1 mM ethylenediaminetetraacetic acid).
Human – Pooled Human Liver Microsomes (Mongolian), Cat. No.: LM-R-02M, RILD Research Institute for Liver Diseases (Shanghai) Co. Ltd.
(§2) A 10 mM solution of each of the control compound and test compounds was prepared in DMSO. Then 10 μL of the solution was added to 190 μL of acetonitrile to form a 0.5 mM mother liquor. 1.5 μL of the 0.5 mM compound mother liquor was measured out, and […] of 20 mg/mL liver microsomes and 479.75 μL of the buffer were added. (The actual preparation amount can be adjusted according to use).
(§3) A 10 mg/mL solution of reduced coenzyme II (NADPH) was prepared in the buffer. A 96-well plate was placed on ice. Wells corresponding to different time points (0, 10, 30, 60 and 90 min, Non-NADPH) were set for each compound. 30 μL of the working solution was added to each well. For 0 min wells, 155 μL of glacial acetonitrile solution (the internal standard concentration was 1 μM) was added first, and after the mixtures were well mixed using a pipet, 15 μL of NADPH (10 mg/mL) was added. Before the reactions were started, the 96-well plate was pre-incubated on a microplate shaker at 37° C. for 5 min. Then 15 μL of NADPH (10 mg/mL) was added to each well to start the metabolic reactions. After the reactions were carried out for 10, 30, 60 and 90 min, 155 μL of glacial acetonitrile solution (the internal standard concentration was 1 μM) was added to the corresponding wells to terminate the reactions. After 90 min, the reaction in the Non-NADPH system was terminated by adding 155 μL of glacial acetonitrile solution (the internal standard concentration was 1 μM). After the reaction was completed, the 96-well plate was shaken on a microplate shaker (600 rpm) for 10 min and then centrifuged at 4° C. at 4000 g for 15 min. 50 μL of the supernatant was added to a new 2 mL 96-well plate, and 300 μL of deionized water was added. The mixture was analyzed on an AB SCIEX ExionLC-Triple Quad 5500 high performance liquid chromatograph-mass spectrometer. The Analyst 1.6.3 software was used.

[5] = Liver microsomal stability experiment (monkey); type: in vitro ADME; conditions: cynomolgus monkey liver microsomes; for half-life at 1 µM: pH 7.4, NADPH, read-out: MMS (monkey) T1/2
Procedure: as §1
Monkey: Cynomolgus Monkey Liver Microsomes, Cat. No.: LM-SXH-02M, RILD Research Institute for Liver Diseases (Shanghai) Co. Ltd.
as §2, §3

[6] = Liver microsomal stability experiment (rat); type: in vitro ADME; conditions: for half-life at 1 µM: SD, pH 7.4, NADPH, read-out: MMS (rat) T1/2; for half-life at 1 µM / MMS (rat) Remaining (T = 90 min): rat liver microsomes; for liver microsomal stability (in words): statement covers rat, monkey and human liver microsomes (Table 3)
Procedure: as §1
Rat: SD Rat Liver Microsomes, Cat. No.: LM-DS-02M, RILD Research Institute for Liver Diseases (Shanghai) Co. Ltd.
as §2, §3

[7] = PK/PD experiment of single intragastric administration to cynomolgus monkeys: plasma concentration; type: in vivo; conditions: same dose (3 & 30 mpk), FIG. 1
Procedure: Cynomolgus monkeys were used. Each group consisted of 3 cynomolgus monkeys, and they were given the control compound and the compound of Example 5 (3 & 30 mpk) by intragastric administration. Blood was collected at different time points and analyzed for drug concentration and complement activity. The drug concentration in plasma was determined by LC-MS/MS. The complement activity in serum was determined using a wieslab assay (Svar Life Science AB, COMPL AP330 RUO) kit, Normal Human Serum (Complement Technology, NHS).

Structure (SMILES): CCO[C@H]1CCN(Cc2c(OC)cc(C)c3[nH]ccc23)[C@H](c2ccc(C(=O)O)cc2)C1 [Control compound, reference compound]
arthritis score [1]: can improve the arthritis score | AUC(0-inf) [2]: 2730 ng·h/mL | AUC(0-t) [2]: 2530 ng·h/mL | Cmax [2]: 784 ng/mL | Tmax [2]: 0.33 h | half-life [2]: 2.42 h

Structure (SMILES): COc1cc(C)c2[nH]ccc2c1CN1CC[C@H](OC2CC2)C[C@H]1c1ccc(C(=O)O)cc1 [Example 3]
IC50 [3]: 216 nM

Rmax (RU) (Complement factor B): 29.1 RU | MMS (human) Remaining (T = 90 min) [4]: 84.79% | half-life at 1 µM [4]: 6.94 h | MMS (monkey) Remaining (T = 90 min) [5]: 80.68% | half-life at 1 µM [5]: 6.07 h | half-life at 1 µM [6]: 3.68 h | MMS (rat) Remaining (T = 90 min) [6]: 72.23%
Structure (SMILES): COc1cc(C)c2[nH]ccc2c1CN1CC[C@H](OC2CCC2)C[C@H]1c1ccc(C(=O)O)cc1 [Example 4]
IC50 [3]: 280 nM | liver microsomal stability (in words) [6]: more significant liver microsomal stability

Rmax (RU) (Complement factor B): 274.2 RU | MMS (human) Remaining (T = 90 min) [4]: 91.04% | half-life at 1 µM [4]: 11.2 h | MMS (monkey) Remaining (T = 90 min) [5]: 93.32% | half-life at 1 µM [5]: 12.8 h | AUC(0-inf) [2]: 3280 ng·h/mL | AUC(0-t) [2]: 3120 ng·h/mL | Cmax [2]: 1920 ng/mL | Tmax [2]: 0.25 h | half-life [2]: 1.58 h | half-life at 1 µM [6]: 9.13 h | MMS (rat) Remaining (T = 90 min) [6]: 89.14%
Structure (SMILES): COc1cc(C)c2[nH]ccc2c1CN1CC[C@H](OCC2CC2)C[C@H]1c1ccc(C(=O)O)cc1 [Example 5]
mean plasma concentration compared with the control compound [7]: significantly higher mean plasma concentration than the control compound | binding capacity to the target protein compared with the control compound (Complement factor B): significantly better than the control compound | arthritis score [1]: can improve the arthritis score | effect on arthritis score compared with the control compound [1]: significantly better effect than the control compound | inhibitory activity against complement factor B in human serum compared with the control compound ([3]; hemolysis of rabbit erythrocytes): significantly better inhibitory activity against complement factor B in human serum than the control compound | IC50 [3]: 87.9 nM | liver microsomal stability (in words) [6]: more significant liver microsomal stability

Rmax (RU) (Complement factor B): 106.5 RU | MMS (human) Remaining (T = 90 min) [4]: 74.57% | half-life at 1 µM [4]: 3.96 h | MMS (monkey) Remaining (T = 90 min) [5]: 60.37% | half-life at 1 µM [5]: 2.17 h | AUC(0-inf) [2]: 2260 ng·h/mL | AUC(0-t) [2]: 2190 ng·h/mL | Cmax [2]: 1180 ng/mL | Tmax [2]: 0.25 h | half-life [2]: 2.28 h | half-life at 1 µM [6]: 0.986 h | MMS (rat) Remaining (T = 90 min) [6]: 33.55%
Structure (SMILES): COc1cc(C)c2[nH]ccc2c1CN1CC[C@H](OCC2CCC2)C[C@H]1c1ccc(C(=O)O)cc1 [Example 6]
binding capacity to the target protein compared with the control compound (Complement factor B): significantly better than the control compound | IC50 [3]: 217 nM | liver microsomal stability (in words) [6]: more significant liver microsomal stability

Rmax (RU) (Complement factor B): 21.6 RU
Structure (SMILES): COc1cc(C)c2[nH]ccc2c1CN1CC[C@H](OC(F)(F)F)C[C@H]1c1ccc(C(=O)O)cc1 [Example 7]
IC50 [3]: 228 nM

Rmax (RU) (Complement factor B): 47.7 RU
Structure (SMILES): COc1cc(C)c2[nH]ccc2c1CN1CCC2(CC1c1ccc(C(=O)O)cc1)CC2(F)F (stereo not shown) [Example 8]
IC50 [3]: 358 nM

Rmax (RU) (Complement factor B): 23.3 RU
Structure (SMILES): COc1cc(C)c2[nH]ccc2c1CN1CCC(C(F)(F)F)CC1c1ccc(C(=O)O)cc1 (stereo not shown) [Example 9]
IC50 [3]: 725 nM

Rmax (RU) (Complement factor B): 30.7 RU
Structure (SMILES): COc1cc(C)c2[nH]ccc2c1CN1CCC(C(F)F)CC1c1ccc(C(=O)O)cc1 (stereo not shown) [Example 10]
IC50 [3]: 611 nM

Structure (SMILES): COc1cc(C)c2[nH]ccc2c1CN1CC[C@H](OC2CC(F)(F)C2)C[C@H]1c1ccc(C(=O)O)cc1 [Example 16]
IC50 [3]: 188 nM

Structure (SMILES): COc1cc(C)c2[nH]ccc2c1CN1CCC(C)(F)CC1c1ccc(C(=O)O)cc1 (stereo not shown) [Example 17]
IC50 [3]: 391 nM

Structure (SMILES): COc1cc(C)c2[nH]ccc2c1CN1CCC2CC2[C@H]1c1ccc(C(=O)O)cc1 (stereo partly shown) [Example 22]
IC50 [3]: 184 nM

Structure (SMILES): CCOC1CC(c2ccc(C(=O)O)cc2)N(Cc2c(OC)cc(C)c3[nH]ccc23)C2CC12 (stereo not shown) [Example 23]
IC50 [3]: 853 nM

Structure (SMILES): COc1cc(C)c2[nH]ccc2c1CN1CC[C@H](OCC2CC2(F)F)C[C@H]1c1ccc(C(=O)O)cc1 (stereo partly shown) [Example 25]
IC50 [3]: 234 nM

Structure (SMILES): COc1cc(C)c2[nH]ccc2c1CN1CC[C@H](OCC2CC2)C[C@H]1c1ccc(-c2nn[nH]n2)cc1 [Example 26]
IC50 [3]: 319 nM
